Here are results for ten molecules from article PMC8399180, “Bioactive Polyketide and Diketopiperazine Derivatives from the Mangrove-Sediment-Derived Fungus Aspergillus sp. SCSIO41407” (Molecules, 2021).

Series [1] has as its system LPS-induced NF-κB activation in RAW264.7 cells. The series can be described thus: Inhibition of LPS-induced NF-κB activation in RAW264.7 cells (luciferase reporter gene assay). It is filed as cell-based. As to conditions: for IC50: Mus musculus, luciferase reporter; for Inhibitory activity against LPS-induced NF-κB activation: compounds at 10 μM, 5 μg/mL LPS for 8 h. The protocol: The inhibitory activities of LPS-induced NF-κB activation in RAW264.7 cells was evaluated as detected by luciferase reporter gene assay as described previously. In brief, the RAW264.7 cells stably transfected with a luciferase reporter gene were plated in 96-well plates and then pretreated with testd compounds (10 μM) and BAY11-7082 (NF-κB inhibitor as positive control, 5 μM, Sigma-Aldrich) for 30 min, followed by 5 μg/mL LPS stimulation for 8 h. Cells were harvested, and luciferase activities of the triplicate tests were measured using the luciferase assay system (Promega, Madison, WI, USA).
For orientation: In a reporter assay the amount or activity of a reporter protein is the signal.

Series [2] has as its system RANKL-induced osteoclast differentiation in bone marrow macrophages cells (BMMCs). Put plainly: RANKL-induced osteoclast differentiation in BMMCs (TRAP staining). It is filed as cell-based. The note with it: 5 μM, 3 days, TRAP-positive multinucleated cells. The procedure: Then, the cells were fixed and stained for TRAP activity and the images were photographed using an inverted microscope (Nikon, Tokyo, Japan). Data are expressed as the mean ± SD and analyzed using GraphPad Prism 7.0 software (GraphPad, San Diego, CA, USA). Statistical differences among groups were performed using one-way analysis of variance with a Bonferroni post-hoc test. A p-value of < 0.05 was considered statistically significant.

Series [3] concerns the target acetylcholinesterase (AChE) (Homo sapiens, UniProt P22303). The series can be described thus: AChE inhibitory activity (modified Ellman method). It is filed as biochemical. As to conditions: 0.1 U/mL AChE, pH 8.0, 30 °C; read-out: AChE inhibition IC50. The protocol: AChE inhibitory activity was evaluated in vitro according to the modified Ellman method. Briefly, 0.1 U/mL AChE solution was prepared by dissolving in phosphate buffer (pH 8.0). The test sample and enzyme buffer were mixed in 96-well plates and incubated for 20 min at 30 °C. Then, 5,5′-dithiobis (2-nitrobenzoic acid) and acetylthiocholine iodide were added, and the enzyme reaction was allowed to proceed for 30 min at 30 °C. AChE activity was determined by measuring the degradation of acetylthiocholine iodide to thiocholine and acetic acid at 405 nm using a microplate reader.
(In general: DTNB colorimetry detects thiols as they appear.)

The test system of series [4] is methicillin-resistant Staphylococcus aureus (MRSA). Put plainly: Antibacterial activity against MRSA (broth microdilution). It is filed as cell-based. The protocol: The cytotoxicity of 1–8 and 10–15 against the A549 cell line was preliminarily evaluated via the MTT method as reported in our previous study, and the antibacterial activities of 1–15 against six bacterial strains, Acinetobacter baumannii (ATCC 19606), Staphylococcus aureus (ATCC 29213), Enterococcus faecalis (ATCC 29212), Klebsiella pneumoniae (ATCC 13883), MRSA, and Escherichia coli (ATCC 25922), were evaluated using a modification of the broth microdilution method.
A general note: Broth dilution looks for growth in wells or tubes with falling amounts of substance.

A short description of series [5]: Cytotoxicity against A549 cell line (MTT method). It is filed as cell-based. The note with it: human, A549 cells, read-out: Cytotoxic Activities A549 (IC50).

Values after ≈ are worked out from the molar mass of the structure shown.

Sequence of acetylcholinesterase (AChE) (P22303 32-614, species assumed): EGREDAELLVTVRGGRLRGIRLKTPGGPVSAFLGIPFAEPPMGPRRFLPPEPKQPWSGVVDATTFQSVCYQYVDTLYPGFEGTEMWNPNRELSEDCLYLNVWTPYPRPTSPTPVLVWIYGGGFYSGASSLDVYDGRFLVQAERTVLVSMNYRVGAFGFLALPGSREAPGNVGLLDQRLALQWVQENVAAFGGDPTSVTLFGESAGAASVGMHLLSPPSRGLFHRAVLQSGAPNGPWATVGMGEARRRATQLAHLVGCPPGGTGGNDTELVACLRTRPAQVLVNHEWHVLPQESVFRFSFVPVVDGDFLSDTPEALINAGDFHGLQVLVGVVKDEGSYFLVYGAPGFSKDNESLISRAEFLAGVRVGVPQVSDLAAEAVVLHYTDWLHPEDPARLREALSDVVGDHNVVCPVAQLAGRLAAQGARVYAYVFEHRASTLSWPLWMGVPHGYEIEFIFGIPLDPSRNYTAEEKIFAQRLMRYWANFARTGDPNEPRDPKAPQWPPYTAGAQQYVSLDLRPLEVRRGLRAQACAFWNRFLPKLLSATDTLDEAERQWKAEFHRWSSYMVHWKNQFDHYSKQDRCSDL

As to `C=CC(C)(C)c1[nH]c2ccccc2c1/C=C1\NC(=O)C(C)(OC)NC1=O` (stereo not drawn) [Compound 11, variecolorin H], in series [1], it took 19.2 µM to reach half-maximal inhibition (IC50) and the “Inhibitory activity against LPS-induced NF-κB activation” value (from here on “Inhibitory activity”) was “obvious inhibitory activities”. Moreover, in series [2], the “Effect on RANKL-induced osteoclast differentiation” value was “suppressed RANKL-induced osteoclast differentiation”.
With `CCC/C=C/C=C/c1c(O)cc(CC=C(C)C)c(O)c1C=O` [Compound 6, dihydroauroglaucin], the half-inhibitory concentration (IC50) – broadly, the midpoint of a concentration-inhibition curve – in series [3] worked out at 18.6 µM.
Consider `Cc1cc(=O)c2c(O)c(C)c(O)cc2o1` [Compound 2, eugenitol], for which, in series [4] (Staphylococcus aureus, read-out: Antibacterial Activities MRSA (MIC)), the MIC (usually the lowest concentration that inhibits growth of the organism) stood at 485 µM (≈ 100 µg/mL).
Turning to `CCCCCCCc1c(O)cc(CC=C(C)C)c(O)c1C=O` [Compound 3, flavoglaucin], the IC50 in series [5] is 22.2 µM; in series [3] it was 23.9 µM.
For `C/C=C/C=C/CCc1c(O)cc(CC=C(C)C)c(O)c1C=O` [Compound 4, isodihydroauroglaucin], the concentration for half-maximal inhibition (IC50) in series [3] is 490 µM.
As for `CCCCC/C=C/c1c(O)cc(CC=C(C)C)c(O)c1C=O` [Compound 5, tetrahydroauroglaucin], the concentration for half-maximal inhibition (IC50) in series [3] was determined as 39.9 µM.
For the molecule Gentamycin [reference compound], the “Antibacterial Activities MRSA (MIC, μM)” value in series [4] was 1.4 µM.
In the case of `C=CC(C)(C)c1[nH]c2ccccc2c1/C=C1\NC(=O)C(=O)NC1=O` [Compound 10, neoechinulin E], the “Inhibitory activity” value in series [1] is “obvious inhibitory activities”.
Take `C/C=C/C(=O)Cc1cc(O)c(C)c(O)c1C=O` [Compound 1, (E)-2,4-dihydroxy-3-methyl-6-(2-oxopent-3-en-1-yl) benzaldehyde]: in series [1], the “Inhibitory activity” value was “obvious inhibitory activities”.
`C=CC(C)(C)c1[nH]c2ccccc2c1/C=c1\[nH]c(=O)c(=C)[nH]c1=O` [Compound 14, neoechinulin B]: in series [1], the concentration for half-maximal inhibition (IC50) stood at 8.7 µM and the “Inhibitory activity” value is “obvious inhibitory activities”. Besides, in series [2], the “Effect on RANKL-induced osteoclast differentiation” value is on record as “suppressed RANKL-induced osteoclast differentiation”.
